# Results: EPA's ToxValDB 9.5 (doi:10.2903/j.efsa.2010.1337)
# Experiments:
# [1] = system: Rattus norvegicus
# [2] = subchronic; duration: 90 days
# [3] = subchronic, duration: 90 days, oral
smiles,measurement,setting,value
"CCC(S)SC(S)CC (stereo not drawn) [1,1'-Sulfanediyldi(propane-1-thiol)]",NOEL,[1]; [3],0.7 mg/kg-day
"CC1SCCSS1 (stereo not drawn) [1,2,4-Trithiane, 3-methyl-]",NOEL,"[1]; subchronic, duration: 90 days",0.3 mg/kg-day
"CC(S)C(C)S (stereo not drawn) [2,3-Butanedithiol]",NOEL,[1]; [3],0.7 mg/kg-day
Cc1ccccc1S [2-Methylbenzenethiol],NOEL,"[1]; subchronic, duration: 90 days",0.51 mg/kg-day
"CCC1SSC(CC)S1 (stereo not drawn) [3,5-Diethyl-1,2,4-trithiolane]",NOEL,"[1]; chronic, duration: 91 days",1.9 mg/kg-day
"CC1SSC(C)S1 (stereo not drawn) [3,5-Dimethyl-1,2,4-trithiolane]",NOEL,"[1]; chronic, duration: 91 days",1.9 mg/kg-day
CC=O [Acetaldehyde],NOEL,"[1]; short-term, duration: 28 days",125 mg/kg-day
C=CCSSCCC [Allyl propyl disulfide],NOEL,"[1]; subchronic, duration: 90 days",4.6 mg/kg-day
"CC(S)c1ccccc1 (stereo not drawn) [Benzenemethanethiol, .alpha.-methyl-]",NOEL,"[1]; subchronic, duration: 90 days",0.43 mg/kg-day
"Cc1cccc(C)c1S [Benzenethiol, 2,6-dimethyl-]",NOEL,"[1]; subchronic, duration: 90 days",0.43 mg/kg-day
"COc1ccccc1S [Benzenethiol, 2-methoxy-]",NOEL,"[1]; subchronic, duration: 90 days",0.51 mg/kg-day
C=CCSSSCC=C [Diallyl trisulfide],NOEL,"[1]; subchronic, duration: 90 days",4.6 mg/kg-day
C1CCC(SSC2CCCCC2)CC1 [Dicyclohexyl disulfide],NOAEL,[2],0.23 mg/kg-day
"CC(S)S [Ethane-1,1-dithiol]",NOEL,"[1]; short-term, duration: 28 days",125 mg/kg-day
C=O [Formaldehyde],NOEL,"[1]; chronic, duration: 2 years",15 mg/kg-day
SCS [Methanedithiol],NOEL,"[1]; chronic, duration: 2 years",15 mg/kg-day
CSCS [Methylthiomethylmercaptan],NOEL,"[1]; subchronic, duration: 90 days",0.3 mg/kg-day
C=CCSC[C@H](N)C(=O)O [S-Allylcysteine],NOEL,"[1]; short-term, duration: 28 days",250 mg/kg-day
